Laboratory results from PMC7758046, “Novel piperazine–chalcone hybrids and related pyrazoline analogues targeting VEGFR-2 kinase; design, synthesis, molecular docking studies, and anticancer evaluation” (Journal of Enzyme Inhibition and Medicinal Chemistry, 2020).
“Also recorded” adds a separate entry of the source.

What was measured:
IGROV1 (Ovarian cancer) = test: NCI-60 single-dose anticancer screen; format: cell-based, human; conditions: 10 µM single dose
How it was run: (§1)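 The NCI tests compounds against 60 human cancer cell lines at one concentration, 10 µM, measuring in vitro cytotoxicity by its reported procedure.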

T-47D (Breast cancer) = test: NCI-60 single-dose anticancer screen; format: cell-based, human; conditions: 10 µM single dose
How it was run: as §1

DU-145 (Prostate cancer) = test: NCI-60 single-dose anticancer screen; format: cell-based, human; conditions: 10 µM single dose
How it was run: as §1

BT-549 (Breast cancer) = test: NCI-60 single-dose anticancer screen; format: cell-based, human; conditions: 10 µM single dose
How it was run: as §1

786-0 (Renal cancer) = test: NCI-60 single-dose anticancer screen; format: cell-based, human; conditions: 10 µM single dose
How it was run: as §1

[1] = system: HOP-92 (Non-small cell lung cancer); test: NCI-60 single-dose anticancer screen; format: cell-based, human; conditions: 10 µM single dose; for inhibition at 10 µM: Homo sapiens, read-out: cell growth inhibition
How it was run: as §1

HL-60(TB) (Leukaemia) = test: NCI-60 single-dose anticancer screen; format: cell-based, human; conditions: 10 µM single dose; for inhibition at 10 µM: Homo sapiens, read-out: cell growth inhibition
Description: Six compounds were selected by the NCI, according to NCI’s DTP selection guidelines, for evaluation of their anticancer activity at a single-dose of 10 µM against 60 human tumours cell lines.
In vitro cytotoxicity was performed in NCI according to reported method.

LOX IMVI (Melanoma) = test: NCI-60 single-dose anticancer screen; format: cell-based, human; conditions: 10 µM single dose
How it was run: as §1

[2] = system: MDA-MB-231/ATCC (Breast cancer); test: NCI-60 single-dose anticancer screen; format: cell-based, human; conditions: 10 µM single dose
How it was run: as §1

HCT-15 (Colon cancer) = test: NCI-60 single-dose anticancer screen; format: cell-based, human; conditions: 10 µM single dose
How it was run: as §1

[3] = system: NCI-H226 (Non-small cell lung cancer); test: NCI-60 single-dose anticancer screen; format: cell-based, human; conditions: 10 µM single dose
How it was run: as §1

SK-OV-3 (Ovarian cancer) = test: NCI-60 single-dose anticancer screen; format: cell-based, human; conditions: 10 µM single dose
How it was run: as §1

HCT-116 (Colon cancer) = test: NCI-60 single-dose anticancer screen; format: cell-based, human; conditions: for cell growth promotion: 10 µM single dose; for inhibition at 10 µM: Homo sapiens, read-out: cell growth inhibition
How it was run: as §1

human VEGFR-2 = target: T1, human VEGFR-2 (Homo sapiens, UniProt P35968); test: In vitro VEGFR-2 inhibitory assay (colorimetric human VEGFR-2 ELISA, HTScan VEGF Receptor 2 Kinase Assay Kit); format: biochemical; conditions: VEGFR-2 inhibition
T1 construct: It includes active VEGFR-2 kinase; purchased HTScan VEGF Receptor 2 Kinase Assay Kit
Description: VEGFR is considered as an important target for the development of potential anti-cancer candidates.
On a 96-well plate, a particular VEGFR-2 antibody was seeded and 100 µL of the normal solution or compound tested was applied, incubated at room temperature for 2.5 h and washed.
Then, 100 µL of the prepared biotin antibody was added, incubated for an additional 1 h at room temperature and washed. Following, 100 µL of streptavidin solution was added at room temperature, incubated for 45 min and then, 100 µL of TMB substrate solution was applied and incubated at room temperature for 30 min. Finally, 50 µL stop solution was added and the absorption was measured at 450 nm instantly. The standard curve, the X-axis concentrations, and the Y-axis absorbance were drawn.

HCT-116 cells [4] = test: Cell cycle analysis by DNA flow cytometry; format: cell-based, human; conditions: 10 µM; for %Pre-G1 / %G2/M / %S / %G0/G1: 24 h; for %Pre-G1: control 1.97; for %G2/M: control 15.44; for %S: control 30.18; for %G0/G1: control 54.38
Description: Flow cytometric analysis is considered a valuable method for determining and analysing the cell cycle parameters. […] The effect on the cell cycle distribution was assessed by a DNA flow cytometry analysis and the cell cycle parameters were compared to untreated control cells in HCT-116 cells which had been incubated with 10 µM of Vd and Ve compounds and the results are shown in Table 3 and Figure 3.
HCT-116 cells were seeded at concentrations of 1 × 10^5 cells per well in a six-well plate, then incubated for 24 h. The cells were treated for 24 h with vehicles (0.1% DMSO) or 10 µM of Vd or Ve compounds. Using ice-cold, 70% ethanol at 4 °C, cells were harvested and fixed for 12 h after that. Ethanol removal and cold PBS washing of the cells were done. Then incubated in 0.5 mL of PBS containing 1 mg/mL Ranse for 30 min at 37 °C. In the dark, the cells were stained with PI for 30 min. Flow cytometer was then used to detect contents of DNA[62].

HCT-116 cells [5] = test: Annexin V-FITC/PI apoptosis assay; conditions: for Apoptosis Early: control 0.51; for Necrosis: control 1.21; for Apoptosis Total: control 1.97

T1 sequence (P35968 20-1356): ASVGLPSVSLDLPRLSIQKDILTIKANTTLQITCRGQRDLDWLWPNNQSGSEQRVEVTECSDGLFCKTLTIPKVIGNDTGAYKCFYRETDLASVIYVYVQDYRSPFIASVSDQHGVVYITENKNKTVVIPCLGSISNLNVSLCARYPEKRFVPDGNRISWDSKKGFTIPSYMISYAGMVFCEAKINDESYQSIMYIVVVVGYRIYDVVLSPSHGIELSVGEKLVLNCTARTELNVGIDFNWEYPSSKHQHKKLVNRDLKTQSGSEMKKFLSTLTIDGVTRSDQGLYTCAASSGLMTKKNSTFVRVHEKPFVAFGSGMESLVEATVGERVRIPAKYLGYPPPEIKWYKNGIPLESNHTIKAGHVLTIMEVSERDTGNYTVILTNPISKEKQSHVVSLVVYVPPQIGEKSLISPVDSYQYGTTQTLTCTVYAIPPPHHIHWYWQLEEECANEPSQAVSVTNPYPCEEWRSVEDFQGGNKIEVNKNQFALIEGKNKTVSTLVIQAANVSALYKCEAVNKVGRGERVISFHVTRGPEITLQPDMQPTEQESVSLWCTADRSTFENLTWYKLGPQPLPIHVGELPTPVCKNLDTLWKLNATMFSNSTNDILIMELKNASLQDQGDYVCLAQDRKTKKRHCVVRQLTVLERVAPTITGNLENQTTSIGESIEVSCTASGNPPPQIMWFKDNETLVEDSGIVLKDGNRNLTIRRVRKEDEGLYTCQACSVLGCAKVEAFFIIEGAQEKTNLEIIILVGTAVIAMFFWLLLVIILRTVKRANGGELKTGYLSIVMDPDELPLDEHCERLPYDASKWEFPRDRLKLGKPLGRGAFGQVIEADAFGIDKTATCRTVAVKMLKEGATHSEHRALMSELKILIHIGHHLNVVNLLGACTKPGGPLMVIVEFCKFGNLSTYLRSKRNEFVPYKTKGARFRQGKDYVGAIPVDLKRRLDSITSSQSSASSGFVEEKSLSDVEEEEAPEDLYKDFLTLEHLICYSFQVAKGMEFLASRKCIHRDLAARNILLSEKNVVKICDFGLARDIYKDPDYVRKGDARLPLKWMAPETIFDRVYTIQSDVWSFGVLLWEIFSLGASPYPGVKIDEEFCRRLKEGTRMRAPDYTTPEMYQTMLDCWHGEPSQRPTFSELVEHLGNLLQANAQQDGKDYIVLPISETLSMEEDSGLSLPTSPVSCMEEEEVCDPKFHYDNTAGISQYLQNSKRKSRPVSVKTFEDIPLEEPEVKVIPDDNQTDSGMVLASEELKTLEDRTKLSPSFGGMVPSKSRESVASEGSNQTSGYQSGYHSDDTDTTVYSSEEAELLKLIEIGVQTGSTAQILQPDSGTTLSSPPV

Structure (SMILES) | melting point | cell growth promotion (IGROV1 (Ovarian cancer)) | cell growth promotion (T-47D (Breast cancer)) | cell growth promotion (DU-145 (Prostate cancer)) | cell growth promotion (BT-549 (Breast cancer)) | cell growth promotion (786-0 (Renal cancer)) | cell growth promotion [1] | inhibition at 10 µM [1] | cell growth promotion (HL-60(TB) (Leukaemia)) | cell growth promotion (LOX IMVI (Melanoma)) | cell growth promotion [2] | cell growth promotion (HCT-15 (Colon cancer)) | cell growth promotion [3] | cell growth promotion (SK-OV-3 (Ovarian cancer)) | cell growth promotion (HCT-116 (Colon cancer)) | inhibition at 10 µM (HCT-116 (Colon cancer)) | IC50 (human VEGFR-2) | inhibition at 10 µM (HL-60(TB) (Leukaemia)) | Comment (cell cycle arrest phase) (HCT-116 cells [4]) | %Pre-G1 (HCT-116 cells [4]) | other results
N#Cc1ccccc1C1CC(c2ccc(N3CCNCC3)cc2)=NN1 (centres unmarked) [VIa, 2-(3-(4-(Piperazin-1-yl)phenyl)-4,5-dihydro-1H-pyrazol-5-yl)benzonitrile] | 165 °C | 93.22% | 89.99% | 104.00% | 96.87% | 106.73% | 83.18% | 16.8% | 81.63% | 99.03% | 95.96% | 112.02% | 93.10% | 96.47% | 85.83% | 14.2% | 1480 nM | – | – | – | –
COc1cc(C2CC(c3ccc(N4CCNCC4)cc3)=NN2)ccc1F (centres unmarked) [VIb, 1-(4-(5-(4-Fluoro-3-methoxyphenyl)-4,5-dihydro-1H-pyrazol-3-yl)phenyl) piperazine] | 195 °C | 82.04% | 73.62% | 103.62% | 70.80% | 94.50% | 57.13% | 42.9% | 76.95% | 79.56% | 81.98% | 85.57% | 89.08% | 83.58% | 61.10% | 38.9% | 1060 nM | – | – | – | –
Fc1cnccc1C1CC(c2ccc(N3CCNCC3)cc2)=NN1 (centres unmarked) [VIc, 1-(4-(5-(3-Fluoropyridin-4-yl)-4,5-dihydro-1H-pyrazol-3-yl)phenyl) piperazine] | 135 °C | 67.96% | 82.20% | 107.16% | 85.33% | 111.09% | 72.42% | 27.6% | 77.32% | 94.31% | 84.58% | 97.59% | 82.88% | 85.00% | 73.82% | 26.2% | 1310 nM | – | – | – | –
O=C(C=Cc1cccc(F)c1)c1ccc(N2CCNCC2)cc1 [Vd, 3-(3-Fluorophenyl)-1-(4-(piperazin-1-yl)phenyl)prop-2-en-1-one] | – | 67.97% | 87.54% | 77.70% | 73.16% | 85.24% | 58.41% | 41.6% | 60.38% | 71.13% | 73.60% | 73.49% | 87.11% | 79.98% | 42.08% | 57.9% | 800 nM | 39.2% | arrest HCT-116 cell cycle in the G2/M phase; also recorded: induced cell arrest at G2/M phase | 16.54% | %G2/M (HCT-116 cells [4]): 50.44%; %S (HCT-116 cells [4]): 27.78%; %G0/G1 (HCT-116 cells [4]): 21.78%; total increase in apoptosis compared to the control (HCT-116 cells [5]): approximately 18.7 fold; Apoptosis Late (HCT-116 cells [5]; 10 µM, 24 h, control 0.25): 10.32%; Apoptosis Early (HCT-116 cells [5]; 10 µM, 24 h): 3.92%; Necrosis (HCT-116 cells [5]; 10 µM, 24 h): 2.3%; Apoptosis Total (HCT-116 cells [5]; 10 µM, 24 h): 16.54%
COc1cc(C=CC(=O)c2ccc(N3CCNCC3)cc2)ccc1F [Ve, 3-(4-Fluoro-3-methoxyphenyl)-1-(4-(piperazin-1-yl)phenyl) prop-2-en-1-one] | – | 59.94% | 74.40% | 105.61% | 66.42% | 87.22% | 55.00% | 45% | 28.91% | 49.01% | 94.50% | 43.16% | 86.54% | 87.98% | 27.43% | 72.6% | 570 nM | 71.1% | arrest HCT-116 cell cycle in the G2/M phase; also recorded: induced cell arrest at G2/M phase | 18.22% | %G2/M (HCT-116 cells [4]): 46.85%; %S (HCT-116 cells [4]): 28.58%; %G0/G1 (HCT-116 cells [4]): 24.57%; total increase in apoptosis compared to the control (HCT-116 cells [5]): ~21.2 fold; Apoptosis Early (HCT-116 cells [5]; 10 µM, 24 h): 4.76%; Necrosis (HCT-116 cells [5]; 10 µM, 24 h): 2.11%; Apoptosis Total (HCT-116 cells [5]; 10 µM, 24 h): 18.22%
O=C(C=Cc1ccncc1F)c1ccc(N2CCNCC2)cc1 [Vf, 3-(3-Fluoropyridin-4-yl)-1-(4-(piperazin-1-yl)phenyl)prop-2-en-1-one] | 225 °C | 97.17% | 118.12% | 108.14% | 90.81% | 103.38% | 82.34% | 17.7% | 79.28% | 103.22% | 98.76% | 111.39% | 99.71% | 96.68% | 73.87% | 26.1% | 1330 nM | 20.7% | – | – | –
